Values joined by “and” are separate entries in the source; they are usually repeats but may differ in a detail not shown here. Equal entries are not always repeated. Where two headings read alike, the source gives them in different places. Each block holds one compound with its values, some of them ahead of it.
Legend:
DRG neurons [1] = assay: Calcium imaging of cultured dissociated DRG neurons; type: cell-based, mouse; settings: for DRG neurons responding: Mrgpr-clusterΔ-/- mice; for effect on CQ-induced [Ca2+]i increase: WT DRG neurons
Protocol: Dorsal root ganglia from all spinal levels of 4-week old mice or rats were collected in cold DH10 (90% DMEM/F-12, 10% FBS, 100 U/ml penicillin, and 100 μg/ml Streptomycin, Gibco) and treated with enzyme solution (5 mg/ml Dispase, 1 mg/ml Collagenase Type I in HPBS without Ca^++ and Mg^++, Gibco) at 37° C. Following trituration and centrifugation, cells were resuspended in DH10, plated on glass cover slips coated with poly-D-lysine (0.5 mg/ml, Stoughton, Mass.) and laminin (10 μg/ml, Invitrogen), cultured in an incubator (95% O2 and 5% CO2) at 37° C. and used within 24 hours.

MrgprX1 [2] = target: T1, MrgprX1 (Homo sapiens, UniProt Q96LB2); assay: Calcium imaging of HEK293 cells transfected with Mrgpr-GFP constructs; type: cell-based; settings: for activation of MrgprX1 (increased [Ca2+]i): BAM8-22 2 μM
T1 sequence (Q96LB2 whole entry): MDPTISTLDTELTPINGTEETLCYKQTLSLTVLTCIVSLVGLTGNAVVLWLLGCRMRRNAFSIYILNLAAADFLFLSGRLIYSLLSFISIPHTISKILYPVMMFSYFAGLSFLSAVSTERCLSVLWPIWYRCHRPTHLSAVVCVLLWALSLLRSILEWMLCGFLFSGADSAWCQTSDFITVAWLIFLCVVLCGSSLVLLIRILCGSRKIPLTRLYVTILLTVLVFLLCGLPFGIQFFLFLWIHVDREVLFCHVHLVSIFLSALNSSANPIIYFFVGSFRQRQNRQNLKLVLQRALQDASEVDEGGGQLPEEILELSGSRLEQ
Protocol: (§1) The human Mrgpr family (i.e. MrgprXs) is much smaller than the murine family.
(§2) Serotonin also has a bicyclic structure. […] Quinine is another drug used to treat malaria and its side effects also include itch. However, it is unclear if quinine-induced itch is an allergic response.
(§3) HEK293 cells were cultured in growth medium consisted of 90% DMEM, 10% fetal bovine serum, 100 U/ml penicillin, and 100 μg/ml Streptomycin (Invitrogen) at 37° C. in the presence of […] and 5% CO2. HEK293 cells were transfected with Mrgpr-expression constructs using Lipofectamine 2000 (Invitrogen) according to the manufacturer's protocol.

rats = assay: Scratching behavior after intradermal injection in rats; settings: 500 μg/50 μl, first 30 min
MrgprA3 [3] = target: T2, MrgprA3 (Mus musculus, UniProt Q91WW3); assay: Calcium imaging of HEK293 cells transfected with Mrgpr-GFP constructs; type: cell-based; parameters: expressed in transfected cells; host or cells: HEK293
T2 sequence (Q91WW3 1-302): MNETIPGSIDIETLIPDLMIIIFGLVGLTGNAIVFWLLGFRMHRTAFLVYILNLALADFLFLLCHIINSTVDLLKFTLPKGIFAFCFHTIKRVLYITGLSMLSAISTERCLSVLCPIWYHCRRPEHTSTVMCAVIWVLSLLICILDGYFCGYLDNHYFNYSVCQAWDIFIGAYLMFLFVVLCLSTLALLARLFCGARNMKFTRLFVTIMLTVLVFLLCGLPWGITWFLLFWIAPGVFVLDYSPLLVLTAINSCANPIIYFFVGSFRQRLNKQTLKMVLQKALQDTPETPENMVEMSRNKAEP
Description: (§4) Each of the twelve Mrgprs that were deleted in Mrgpr-clusterΔ^−/− mice were cloned into a mammalian expression vector (FIG. 1A), and transfected individually into human embryonic kidney (HEK) 293 cells. By fusing green fluorescent protein (GFP) to the C-termini of the Mrgpr coding sequences, both transfected cells and the proper membrane localization of the receptors was visualized. […] Increased [Ca^2+]i resulting from activation of the receptors was monitored by calcium imaging.
as §2, §3

MrgprX2 = target: T3, MrgprX2 (Homo sapiens, UniProt Q96LB1); assay: Calcium imaging of transfected HEK293 cells; type: cell-based
T3 construct: expressed in transfected cells; host or cells: HEK293
T3 sequence (Q96LB1 1-330): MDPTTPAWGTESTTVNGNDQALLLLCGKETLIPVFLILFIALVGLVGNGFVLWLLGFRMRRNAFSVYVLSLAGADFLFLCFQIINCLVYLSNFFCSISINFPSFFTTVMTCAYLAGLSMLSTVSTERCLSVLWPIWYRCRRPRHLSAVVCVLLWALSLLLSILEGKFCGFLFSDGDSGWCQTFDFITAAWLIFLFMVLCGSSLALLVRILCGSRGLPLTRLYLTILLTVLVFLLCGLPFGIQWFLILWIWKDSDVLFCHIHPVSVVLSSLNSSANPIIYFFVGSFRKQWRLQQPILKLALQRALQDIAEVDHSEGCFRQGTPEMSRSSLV
Description: as §1

MrgprX3 = target: T4, MrgprX3 (Homo sapiens, UniProt Q96LB0); assay: Calcium imaging of transfected HEK293 cells; type: cell-based
T4 construct: expressed in transfected cells; host or cells: HEK293
T4 sequence (Q96LB0 whole entry): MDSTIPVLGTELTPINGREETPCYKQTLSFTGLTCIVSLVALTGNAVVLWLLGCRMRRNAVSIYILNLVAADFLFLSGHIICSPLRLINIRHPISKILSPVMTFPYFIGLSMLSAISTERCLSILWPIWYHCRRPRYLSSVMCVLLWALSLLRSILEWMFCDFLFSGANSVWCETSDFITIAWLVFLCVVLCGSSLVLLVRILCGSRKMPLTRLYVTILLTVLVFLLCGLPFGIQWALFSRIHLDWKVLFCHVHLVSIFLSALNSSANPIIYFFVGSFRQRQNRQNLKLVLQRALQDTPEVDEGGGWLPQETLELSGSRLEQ
Description: as §1

rat MrgprC = target: T5, rat MrgprC (Rattus norvegicus, UniProt Q8R4G1); assay: Rescue: Mrgpr-clusterΔ-/- DRG neurons electroporated with rat Mrgpr, calcium imaging
T5 sequence (Q8R4G1 1-323): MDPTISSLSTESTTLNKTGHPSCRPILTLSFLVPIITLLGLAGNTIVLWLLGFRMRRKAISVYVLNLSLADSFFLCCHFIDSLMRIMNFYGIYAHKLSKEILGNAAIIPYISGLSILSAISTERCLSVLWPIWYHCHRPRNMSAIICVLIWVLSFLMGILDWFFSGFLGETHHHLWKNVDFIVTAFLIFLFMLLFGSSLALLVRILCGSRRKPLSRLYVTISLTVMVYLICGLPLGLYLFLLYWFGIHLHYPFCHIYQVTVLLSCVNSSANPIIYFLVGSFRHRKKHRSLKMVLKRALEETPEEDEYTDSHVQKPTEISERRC

DRG neurons [4] = assay: Whole-cell current-clamp recording of action potentials in DRG neurons; type: cell-based, mouse; settings: CQ 1 mM
Description: To determine whether CQ can directly induce action potentials (APs) in dissociated DRG neurons, using whole-cell patch clamp recording. […] These studies provide strong evidence that CQ can directly excite a small subpopulation of sensory neurons in DRG and that Mrgprs are required for this effect. Similar to the mouse results, CQ induces robust activation in a subset of rat DRG neurons as determined by both an increase in [Ca^2+]i and generation of APs (FIG. 4).
Patch pipettes had resistances of 2-4 MΩ. […] All experiments were performed at room temperature ([…]).

[5] = cited from earlier work
MrgprC11 = target: T6, MrgprC11 (Mus musculus, UniProt Q8CIP3); assay: Calcium imaging of HEK293 cells transfected with Mrgpr-GFP constructs; type: cell-based; settings: BAM8-22 2 μM
T6 construct: expressed in transfected cells; host or cells: HEK293
T6 sequence (Q8CIP3 1-322): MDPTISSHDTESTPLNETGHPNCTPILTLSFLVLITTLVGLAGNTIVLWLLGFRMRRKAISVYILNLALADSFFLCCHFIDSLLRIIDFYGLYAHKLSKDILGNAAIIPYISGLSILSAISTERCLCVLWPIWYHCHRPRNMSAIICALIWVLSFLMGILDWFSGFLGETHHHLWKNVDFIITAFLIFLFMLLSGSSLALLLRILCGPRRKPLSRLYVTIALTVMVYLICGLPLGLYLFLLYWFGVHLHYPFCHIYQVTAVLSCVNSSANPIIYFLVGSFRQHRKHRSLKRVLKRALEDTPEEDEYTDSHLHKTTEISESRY
Description: as §4
(§5) HEK293 cells were transfected with Mrgpr-expression constructs using Lipofectamine 2000 (Invitrogen) according to the manufacturer's protocol.

MrgprA4 = target: T7, MrgprA4 (Mus musculus, UniProt Q91WW2); assay: as above; type: cell-based; settings: NPFF 2 μM
T7 construct: expressed in transfected cells; host or cells: HEK293
T7 sequence (Q91WW2 1-313): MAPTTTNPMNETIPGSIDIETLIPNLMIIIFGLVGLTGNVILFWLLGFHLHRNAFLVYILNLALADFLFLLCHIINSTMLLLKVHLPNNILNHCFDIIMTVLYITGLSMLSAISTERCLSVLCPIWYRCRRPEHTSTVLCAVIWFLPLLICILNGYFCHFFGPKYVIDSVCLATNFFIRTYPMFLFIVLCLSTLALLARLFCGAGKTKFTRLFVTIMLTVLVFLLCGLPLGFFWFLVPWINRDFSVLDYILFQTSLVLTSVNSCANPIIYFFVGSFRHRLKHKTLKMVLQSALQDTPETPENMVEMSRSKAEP
Description: as §4, §5

MrgprA1 [6] = target: T8, MrgprA1 (Mus musculus, UniProt Q91WW5); assay: as above; type: cell-based; parameters: expressed in transfected cells; settings: CQ 1 mM, FMRF 2 μM
T8 sequence (Q91WW5 1-304): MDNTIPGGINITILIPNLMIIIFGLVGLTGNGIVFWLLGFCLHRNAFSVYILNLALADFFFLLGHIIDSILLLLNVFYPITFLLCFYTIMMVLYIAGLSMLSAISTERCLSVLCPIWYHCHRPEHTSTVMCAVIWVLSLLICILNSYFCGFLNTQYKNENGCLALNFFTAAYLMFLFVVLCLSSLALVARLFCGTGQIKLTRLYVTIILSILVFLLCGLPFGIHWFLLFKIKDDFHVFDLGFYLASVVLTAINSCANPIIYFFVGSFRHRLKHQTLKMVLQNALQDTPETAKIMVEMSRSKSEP
Description: as §4, §5

MrgprX1 [7] = target: T1, MrgprX1; assay: Rescue: Mrgpr-clusterΔ-/- DRG neurons electroporated with Mrgpr construct; type: cell-based, mouse
Protocol: (§6) To determine whether MrgprA3 or MrgprX1 can rescue the phenotypes of DRG neurons from Mrgpr-clusterΔ^−/− mice, the Mrgpr expression constructs used in the heterologous studies were electroporated into dissociated adult DRG neurons from these mice. After 24 hour in culture, expression and membrane localization of the transfected Mrgprs in the mutant neurons could be readily visualized by GFP (FIG. 8G).

mice = assay: Scratching behavior after pruritogen injection in mice; type: in vivo, mouse; settings: for total number of scratching bouts: first 30 min after CQ injection (200 μg/50 μl, 8 mM); for scratching in Mrgpr-clusterΔ-/- mice compared with WT: 30 min, histamine 10 μmol, compound 48/80 100 μg/50 μl, CQ 200 μg/50 μl, BAM8-22 50 μl of 1 mM
Description: Kuraishi et al., (1995). […] F. (2007) Nature 448, 700-703).

MrgprA3 [8] = target: T2, MrgprA3; assay: Rescue: Mrgpr-clusterΔ-/- DRG neurons electroporated with Mrgpr construct; type: cell-based
Protocol: as §6

MrgprA1 [9] = target: T8, MrgprA1; assay: as above; type: cell-based; parameters: expressed in transfected cells; host or cells: dissociated adult DRG neurons of Mrgpr-cluster-deleted mice
Protocol: as §6

[10] = cited from earlier work; remark: listed apart in the source
histamine H1 receptor = histamine H1 receptor (Homo sapiens, UniProt P35367); settings: HEK293 cells; histamine 50 μM
histamine H1 receptor, sequence (P35367 whole entry, species assumed): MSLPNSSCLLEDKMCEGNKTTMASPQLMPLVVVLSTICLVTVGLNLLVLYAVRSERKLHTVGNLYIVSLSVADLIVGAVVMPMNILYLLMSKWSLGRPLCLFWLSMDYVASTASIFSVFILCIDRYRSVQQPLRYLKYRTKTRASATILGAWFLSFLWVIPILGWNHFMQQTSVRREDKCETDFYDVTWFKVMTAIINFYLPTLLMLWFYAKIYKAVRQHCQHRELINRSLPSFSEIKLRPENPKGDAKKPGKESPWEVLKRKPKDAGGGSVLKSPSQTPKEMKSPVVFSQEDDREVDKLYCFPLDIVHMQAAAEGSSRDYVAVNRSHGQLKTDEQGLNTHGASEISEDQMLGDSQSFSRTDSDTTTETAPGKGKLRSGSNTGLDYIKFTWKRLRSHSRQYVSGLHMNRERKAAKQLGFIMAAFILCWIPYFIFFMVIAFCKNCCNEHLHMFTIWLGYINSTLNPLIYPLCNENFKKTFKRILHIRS
Description: as §4, §3

- activation of MrgprX1 (increased [Ca2+]i) (MrgprX1 [2]): responded
- EC50 (MrgprX1 [2]; dose-response, calcium imaging): 297.7 ± 2.1 µM
- activation of MrgprA3 (increased [Ca2+]i) (MrgprA3 [3]): strong response
- EC50 (MrgprA3 [3]; dose-response, calcium imaging): 27.6 ± 2.03 µM
- response of MrgprX2-expressing cells (MrgprX2): completely insensitive
- response of MrgprX3-expressing cells (MrgprX3): completely insensitive
- response of rat MrgprC-electroporated Mrgpr-deficient neurons (rat MrgprC): did not
- response of MrgprC11-expressing cells (MrgprC11): failed to respond
- response of MrgprA4-expressing cells (MrgprA4): insensitive
- MrgprX1-electroporated GFP-positive neurons generating a train of APs (MrgprX1 [7]): 5 out of 7
- [Ca2+]i response of MrgprX1-electroporated mutant neurons (MrgprX1 [7]): sensitivity
- [Ca2+]i response of MrgprA3-expressing mutant neurons (MrgprA3 [8]): showed increased [Ca^2+]i
- action potentials in MrgprA3-expressing mutant neurons (MrgprA3 [8]): generated numerous APs
- MrgprA1-electroporated neurons eliciting a few APs (MrgprA1 [9]): 3 out of 7
- [Ca2+]i response of MrgprA1-electroporated mutant neurons (MrgprA1 [9]): only a small portion responded
Compound: CCN(CC)CCCC(C)Nc1ccnc2cc(Cl)ccc12 (stereo not shown) [CQ, Chloroquine]
- DRG neurons responding (DRG neurons [1]): none of the neurons
- percentage of DRG neurons responding with increased [Ca2+]i (DRG neurons [1]; WT mice, CQ 1 mM, BAM8-22 2 μM): ~4.4% and 4-5%
- reduction of calcium responses on sequential application (DRG neurons [1]; WT neurons): ~20%
- scratching responses (rats): evoked profound scratching responses
- neurons showing any response (DRG neurons [4]; Mrgpr-clusterΔ-/- mice): none of 11
- action potentials in CQ-sensitive neurons (DRG neurons [4]; WT DRG): displayed a train of APs
- patients refusing further treatment because of unbearable itch ([5]; African patients): ~30%
- incidence of itch as side effect ([5]; black Africans): up to 70%
- response of MrgprA1-transfected cells (increased [Ca2+]i) (MrgprA1 [6]): fewer than half of MrgprA1-tranfected cells responded
- occurrence of the first scratching behavior (mice; Mrgpr-clusterΔ-/- (KO) mice): 280.5 ± 35.0 s
- total number of scratching bouts (mice; Mrgpr-clusterΔ-/- mice): 104±13
- occurrence of the first scratching behavior (mice; WT mice): 57.8 ± 25.4 s
- time at which scratching peaked (mice; WT mice): ≤ 15 min
- first bout observed after injection (mice; WT mice, typical): 1 to 2 min
- total number of scratching bouts (mice; WT mice): 278±21
- concentration in patient plasma ([10]; plasma): micromolar range
- concentration reached in skin and other pigmented tissues ([10]; skin): high micromolar to millimolar concentrations

Compound: O=C(O)CN(CCOCCOCCN(CC(=O)O)CC(=O)O)CC(=O)O [EGTA]
- effect on CQ-induced [Ca2+]i increase (DRG neurons [1]): almost completely blocked

Compound: N.N.N.N.N.N.N.N.N.N.N.N.N.N.[Cl-].[Cl-].[Cl-].[Cl-].[Cl-].[Cl-].[O-2].[O-2].[Ru+3].[Ru+3].[Ru+4] [Ruthenium red]
- effect on CQ-induced [Ca2+]i increase (DRG neurons [1]): severely attenuated

- activation of MrgprA3 (MrgprA3 [3]; 100 μM): failed to activate
Compound: NCCc1c[nH]c2ccc(O)cc12 [Serotonin]

Compound: NCCc1c[nH]cn1 [histamine]
- percentage of DRG neurons responding, WT versus mutant cultures (DRG neurons [1]; histamine 50 μM): identical
- response of histamine H1 receptor-expressing cells (histamine H1 receptor): strong response
- activation of MrgprA3 (increased [Ca2+]i) (MrgprA3 [3]): did not respond
- scratching in Mrgpr-clusterΔ-/- mice compared with WT (mice): No significant difference

- activation of MrgprA3 (increased [Ca2+]i) (MrgprA3 [3]): weakly activates
Compound: C=C[C@H]1C[N@@]2CC[C@H]1C[C@H]2[C@H](O)c1ccnc2ccc(OC)cc12 [quinine]

- activation of MrgprX1 (increased [Ca2+]i) (MrgprX1 [2]): completely failed to activate
- activation of MrgprA3 (increased [Ca2+]i) (MrgprA3 [3]): completely failed to activate
Compound: c1ccc2ncccc2c1 [quinoline]
- scratching responses (rats): did not
- scratching behavior evoked (mice; both WT and mutant mice): did not evoke any scratching behavior

Compound: BAM8-22: bovine adrenal medulla peptide; MrgprC11-specific agonist (VGRPEWWMDYQKRYG)
- DRG neurons responding (DRG neurons [1]): no DRG neurons
- activation of MrgprX1 (increased [Ca2+]i) (MrgprX1 [2]): responded
- activation of MrgprA3 (increased [Ca2+]i) (MrgprA3 [3]): did not respond
- response of rat MrgprC-electroporated Mrgpr-deficient neurons (rat MrgprC; BAMS-22 10 μM): responded
- response of MrgprC11-expressing cells (MrgprC11): responded
- [Ca2+]i response of MrgprX1-electroporated mutant neurons (MrgprX1 [7]): sensitivity
- scratching in Mrgpr-clusterΔ-/- mice compared with WT (mice): dramatic reduction
- scratching behavior evoked (mice; WT mice, intradermal injection, 50 μl of 1 mM): induced strong scratching behavior

Compound: FMRF: molluscan FMRFamide, peptide agonist of MrgprA1
- response of MrgprA1-transfected cells (increased [Ca2+]i) (MrgprA1 [6]): all transfected cells responded
- [Ca2+]i response of MrgprA1-electroporated mutant neurons (MrgprA1 [9]; FMRF 2 μM): strong response

Compound: NPFF: mammalian neuropeptide FF, peptide agonist of MrgprA4
- response of MrgprA4-expressing cells (MrgprA4): respond

Reference: patent US9771592B2, “Methods and compositions for treating or preventing pruritis” (The Johns Hopkins University, priority 2008, dated 2017)
